# Measurements published in patent US7678796B2, “MGluR5 modulators I” (AstraZeneca AB, priority 2006, dated 2010).
# Assays:
# human mGluR5d = biological target: T1, human mGluR5d (Homo sapiens, UniProt P41594); test: FLIPR assay, functional assessment of mGluR5 antagonism (intracellular calcium mobilization); type: cell-based; details: cells expressing human mGluR5d; read-out: FLIPR hmGluR5d
# T1 construct: expressed in transfected cells
# Source text: Biological Evaluation Functional Assessment of mGluR5 Antagonism in Cell Lines Expressing mGluR5D
# The properties of the compounds of the invention can be analyzed using standard assays for pharmacological activity. Examples of glutamate receptor assays are well known in the art as described in for example Aramori et al., Neuron 8:757 (1992), Tanabe et al., Neuron 8:169 (1992), Miller et al., J. Neuroscience 15: 6103 (1995), Balazs, et al., J. Neurochemistry 69:151 (1997). The methodology described in these publications is incorporated herein by reference. Conveniently, the compounds of the invention can be studied by means of an assay (FLIPR) that measures the mobilization of intracellular calcium, [Ca^2+]i in cells expressing mGluR5 or another assay (IP3) that measures inositol phosphate turnover.
# Cells expressing human mGluR5d as described in WO97/05252 are seeded at a density of 100,000 cells per well on collagen coated clear bottom 96-well plates with black sides and experiments are done 24 h following seeding. All assays are done in a buffer containing 127 mM NaCl, 5 mM KCl, 2 mM MgCl2, 0.7 mM NaH2PO4, 2 mM CaCl2, 0.422 mg/mL NaHCO3, 2.4 mg/mL HEPES, 1.8 mg/mL glucose and 1 mg/mL BSA Fraction IV (pH 7.4). Cell cultures in the 96-well plates are loaded for 60 minutes in the above mentioned buffer containing 4 μM of the acetoxymethyl ester form of the fluorescent calcium indicator fluo-3 (Molecular Probes, Eugene, Oreg.) in 0.01% pluronic acid (a proprietary, non-ionic surfactant polyol—CAS Number 9003-11-6). Following the loading period the fluo-3 buffer is removed and replaced with fresh assay buffer. FLIPR experiments are done using a laser setting of 0.800 W and a 0.4 second CCD camera shutter speed with excitation and emission wavelengths of 488 nm and 562 nm, respectively. Each experiment is initiated with 160 μl of buffer present in each well of the cell plate. A 40 μl addition from the antagonist plate was followed by a 50 μL addition from the agonist plate. A 30 minute interval separates the antagonist and agonist additions. The fluorescence signal is sampled 50 times at 1 second intervals followed by 3 samples at 5 second intervals immediately after each of the two additions. Responses are measured as the difference between the peak height of the response to agonist, less the background fluorescence within the sample period. IC50 determinations are made using a linear least squares fitting program.
# [1] = Determination of in vitro stability in human liver microsomes (CLint); type: in vitro ADME; details: pH 7.4, 0.5 mg/mL protein, 1.0 μmol/L compound, NADPH
# Method: Rat liver microsomes are prepared from Sprague-Dawley rats liver samples. Human liver microsomes are either prepared from human liver samples or acquired from BD Gentest. The compounds are incubated at 37° C. at a total microsome protein concentration of 0.5 mg/mL in a 0.1 mol/L potassium phosphate buffer at pH 7.4, in the presence of the cofactor, NADPH (1.0 mmol/L). The initial concentration of compound is 1.0 μmol/L. Samples are taken for analysis at 5 time points, 0, 7, 15, 20 and 30 minutes after the start of the incubation. The enzymatic activity in the collected sample is immediately stopped by adding a 3.5 times volume of acetonitrile. The concentration of compound remaining in each of the collected samples is determined by means of LC-MS. The elimination rate constant (k) of the mGluR5 inhibitor is calculated as the slope of the plot of In[mGluR5 inhibitor] against incubation time (minutes). The elimination rate constant is then used to calculate the half-life (T ½) of the mGluR5 inhibitor, which is subsequently used to calculate the intrinsic clearance (CLint) of the mGluR5 inhibitor in liver microsomes as: CLint.=(ln 2×incubation volume)/(T ½×protein concentration)=μl/min/mg
# HERG = HERG (Homo sapiens, UniProt Q12809); test: HERG ionworks; type: cell-based
# Sequence of HERG (Q12809 whole entry): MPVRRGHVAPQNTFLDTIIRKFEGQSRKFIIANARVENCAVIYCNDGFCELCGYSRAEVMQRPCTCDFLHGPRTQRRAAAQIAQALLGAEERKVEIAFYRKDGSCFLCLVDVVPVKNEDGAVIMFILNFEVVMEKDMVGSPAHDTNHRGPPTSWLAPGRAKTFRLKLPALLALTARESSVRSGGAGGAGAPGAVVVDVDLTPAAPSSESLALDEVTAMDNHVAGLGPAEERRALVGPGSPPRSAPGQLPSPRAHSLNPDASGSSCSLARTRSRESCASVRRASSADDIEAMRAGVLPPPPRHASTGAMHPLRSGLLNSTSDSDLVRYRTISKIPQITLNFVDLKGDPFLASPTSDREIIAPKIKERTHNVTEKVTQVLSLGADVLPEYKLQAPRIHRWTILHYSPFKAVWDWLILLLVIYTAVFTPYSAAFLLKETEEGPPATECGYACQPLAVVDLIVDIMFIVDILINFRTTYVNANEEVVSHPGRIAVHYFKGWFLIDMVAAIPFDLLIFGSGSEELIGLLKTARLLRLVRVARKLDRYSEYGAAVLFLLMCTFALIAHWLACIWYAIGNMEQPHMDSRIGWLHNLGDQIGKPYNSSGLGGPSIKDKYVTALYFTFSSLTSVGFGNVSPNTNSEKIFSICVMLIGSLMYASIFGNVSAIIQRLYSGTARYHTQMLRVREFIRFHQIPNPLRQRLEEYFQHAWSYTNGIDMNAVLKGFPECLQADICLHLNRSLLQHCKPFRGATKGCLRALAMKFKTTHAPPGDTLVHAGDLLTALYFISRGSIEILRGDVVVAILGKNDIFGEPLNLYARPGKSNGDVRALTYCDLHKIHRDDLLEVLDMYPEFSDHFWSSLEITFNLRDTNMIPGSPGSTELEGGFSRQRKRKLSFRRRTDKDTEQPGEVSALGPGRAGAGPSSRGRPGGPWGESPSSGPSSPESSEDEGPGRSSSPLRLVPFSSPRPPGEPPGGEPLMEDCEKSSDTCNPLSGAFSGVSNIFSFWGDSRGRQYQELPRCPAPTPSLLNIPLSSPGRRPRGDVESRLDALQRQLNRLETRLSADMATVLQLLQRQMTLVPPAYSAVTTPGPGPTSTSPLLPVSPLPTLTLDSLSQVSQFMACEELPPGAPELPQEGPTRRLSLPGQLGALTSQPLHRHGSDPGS
# [2] = Determination of brain to plasma ratio in rat; type: in vivo; details: female Sprague Dawley rats, read-out: Brain/Plasma Ratio of compound in Rat
# Method: Brain to plasma ratios are estimated in female Sprague Dawley rats. The compound is dissolved in water or another appropriate vehicle. For determination of brain to plasma ratio the compound is administrated as a subcutaneous, or an intravenous bolus injection, or an intravenous infusion, or an oral administration. At a predetermined time point after the administration a blood sample is taken with cardiac puncture. The rat is terminated by cutting the heart open, and the brain is immediately retained. The blood samples are collected in heparinized tubes and centrifuged within 30 minutes, in order to separate the plasma from the blood cells. The plasma is transferred to 96-well plates and stored at −20° C. until analysis. The brains are divided in half, and each half is placed in a pre-tarred tube and stored at −20° C. until analysis. Prior to the analysis, the brain samples are thawed and 3 mL/g brain tissue of distilled water is added to the tubes. The brain samples are sonicated in an ice bath until the samples are homogenized. Both brain and plasma samples are precipitated with acetonitrile. After centrifugation, the supernatant is diluted with 0.2% formic acid. Analysis is performed on a short reversed-phase HPLC column with rapid gradient elution and MSMS detection using a triple quadrupole instrument with electrospray ionisation and Selected Reaction Monitoring (SRM) acquisition. Liquid-liquid extraction may be used as an alternative sample clean-up. The samples are extracted, by shaking, to an organic solvent after addition of a suitable buffer. An aliquot of the organic layer is transferred to a new vial and evaporated to dryness under a stream of nitrogen. After reconstitution of the residuals the samples are ready for injection onto the HPLC column.
# T1 sequence (P41594 21-942 isoform P41594-3 limits assumed): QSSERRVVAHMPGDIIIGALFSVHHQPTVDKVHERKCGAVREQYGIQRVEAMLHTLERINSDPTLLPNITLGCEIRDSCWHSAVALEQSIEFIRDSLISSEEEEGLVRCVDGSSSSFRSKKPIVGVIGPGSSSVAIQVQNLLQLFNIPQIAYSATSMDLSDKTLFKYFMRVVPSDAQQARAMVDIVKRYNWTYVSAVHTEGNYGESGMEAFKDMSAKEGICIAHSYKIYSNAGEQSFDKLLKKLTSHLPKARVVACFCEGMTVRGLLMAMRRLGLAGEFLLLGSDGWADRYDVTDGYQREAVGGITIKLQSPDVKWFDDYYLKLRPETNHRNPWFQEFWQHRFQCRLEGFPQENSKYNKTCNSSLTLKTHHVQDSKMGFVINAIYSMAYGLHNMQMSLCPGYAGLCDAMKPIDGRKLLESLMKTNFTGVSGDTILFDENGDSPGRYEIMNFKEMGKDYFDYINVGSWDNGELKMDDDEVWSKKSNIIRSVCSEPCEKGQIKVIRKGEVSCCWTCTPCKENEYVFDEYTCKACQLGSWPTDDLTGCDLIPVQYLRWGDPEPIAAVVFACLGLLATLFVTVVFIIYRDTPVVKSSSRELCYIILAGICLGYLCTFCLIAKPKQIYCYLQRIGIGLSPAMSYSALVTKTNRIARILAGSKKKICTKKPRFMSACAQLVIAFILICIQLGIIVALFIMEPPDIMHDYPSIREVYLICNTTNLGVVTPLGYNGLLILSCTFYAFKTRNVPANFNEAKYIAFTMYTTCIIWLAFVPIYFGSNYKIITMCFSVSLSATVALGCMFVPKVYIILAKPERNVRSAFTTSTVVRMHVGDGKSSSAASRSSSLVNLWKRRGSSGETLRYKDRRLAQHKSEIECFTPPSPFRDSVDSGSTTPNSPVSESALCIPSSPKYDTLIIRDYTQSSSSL
IC50 (human mGluR5d),microsomal CLint at 1 μmol/L [1],Kp [2],Structure (SMILES),HERG ionworks (HERG)
39 nM,< 12 µL/min/mg,0.035,"Cn1c(-c2ccn(C)c(=O)c2)nnc1N1CCC[C@@H]1c1nnn(-c2cccc(Cl)c2)n1 [Example 31.11, 4-(5-{(R)-2-[2-(3-Chloro-phenyl)-2H-tetrazol-5-yl]-pyrrolidin-1-yl}-4-methyl-4H-[1,2,4]triazol-3-yl)-1-methyl-1H-pyridin-2-one]",20 µM
25 nM,< 12 µL/min/mg,0.11,"Cn1c(-c2ccnnc2)nnc1N1CCC[C@@H]1c1cc(-c2cccc(Cl)c2)on1 [Example 31.8, 4-(5-{(R)-2-[5-(3-Chloro-phenyl)-isoxazol-3-yl]-pyrrolidin-1-yl}-4-methyl-4H-[1,2,4]triazol-3-yl)-pyridazine]",16 µM
47 nM,< 12 µL/min/mg,0.005,"Cn1c(-c2ccc(=O)n(C)c2)nnc1N1CCC[C@@H]1c1cc(-c2cccc(Cl)c2)on1 [Example 31.7, 5-(5-{(R)-2-[5-(3-Chloro-phenyl)-isoxazol-3-yl]-pyrrolidin-1-yl}-4-methyl-4H-[1,2,4]triazol-3-yl)-1-methyl-1H-pyridin-2-one]",23 µM
50 nM,< 12 µL/min/mg,0.01,"Cc1cccc(-c2cc([C@H]3CCCN3c3nnc(-c4ccn(C)c(=O)c4)n3C)no2)c1 [Example 31.19, 1-Methyl-4-{4-methyl-5-[(R)-2-(5-m-tolylisoxazol-3-yl)pyrrolidin-1-yl]-4H-[1,2,4]triazol-3-yl}-1H-pyridin-2-one]",24 µM
